Results published in patent publication US20230310386A1, “INJECTABLE PHARMACEUTICAL COMPOSITIONS AND USES THEREOF” (Intervet Inc., priority 2020, published 2023).
Where “and” joins values, the source holds several entries; their conditions need not be identical. Identical values can stand only once.

Experiment: Dose accuracy study of the reconstituted composition comprising moxidectin and fluralaner
Assay type: physicochemical
Conditions: reconstituted composition of Example 9, 1 mL doses #1-6
Procedure: The vial comprising moxidectin microspheres from Example 3 and fluralaner particles from Example 7 were reconstituted with 17 mL of the aqueous carrier of Example 6. During reconstitution the vial containing the moxidectin microspheres and fluralaner particles was rotated while being held horizontally throughout carrier addition.
Once all the carrier was added, the vial was shaken for 1 minute.
Herein, the vial with the reconstituted composition as described above was manipulated in one of the following ways: • vigorously hand shaken for 1, 2 or 3 minutes prior to sampling; • vigorously hand shaken for 3 minutes and mixed using the syringe 5 times prior to sampling; or • vigorously hand shaken for 3 minutes, mixed using the syringe 5 times and vortexed for […] prior to sampling.
After the solid material was completely suspended, six 1 mL doses were sampled from the vial. Prior to each dose, the vial was vigorously shaken for 15 seconds to avoid settling between samples.
Each of the six doses were transferred to a separate 50 mL volumetric flask along with 10 mL of water: then the samples were diluted to volume with 50/50 acetonitrile/isopropanol and sonicated for 20 minutes.
These samples were analysed to determine the moxidectin concentration.
Additionally, 1 mL of the samples were transferred into separate 25 mL volumetric flasks and diluted with 40/40/20 acetonitrile/isopropanol/water. The fluralaner concentrations were determined from these diluted samples.

Cc1cc(C2=NOC(c3cc(Cl)cc(Cl)c3)(C(F)(F)F)C2)ccc1C(=O)NCC(=O)NCC(F)(F)F (centres unmarked) [Fluralaner, 4-[5-(3,5-dichlorophenyl)-5-trifluoromethyl-4,5-dihydroisoxazol-3-yl]-2-methyl-N-[(2,2,2-trifluoro-ethylcarbamoyl)-methyl]-benzamide]
Fluralaner Percent Label Claim (hand shaken for 1 minute): 104.38 Percent Label Claim and 90.80 Percent Label Claim and 102.68 Percent Label Claim and 101.83 Percent Label Claim and 106.97 Percent Label Claim and 103.52 Percent Label Claim
Fluralaner Percent Label Claim (hand shaken for 2 minutes): 80.44 Percent Label Claim and 103.67 Percent Label Claim and 102.82 Percent Label Claim and 84.95 Percent Label Claim and 99.01 Percent Label Claim and 107.40 Percent Label Claim
Fluralaner Percent Label Claim (hand shaken for 3 minutes): 95.36 Percent Label Claim and 102.59 Percent Label Claim and 95.41 Percent Label Claim and 99.43 Percent Label Claim and 108.06 Percent Label Claim and 88.68 Percent Label Claim
Fluralaner Percent Label Claim (hand shaken for 3 minutes and mixed using a syringe): 105.95 Percent Label Claim and 104.31 Percent Label Claim and 89.74 Percent Label Claim and 105.87 Percent Label Claim and 104.26 Percent Label Claim and 103.83 Percent Label Claim
Fluralaner Percent Label Claim (hand shaken for 3 minutes, mixed using a syringe, and vortexed): 100.86 Percent Label Claim and 106.80 Percent Label Claim and 105.14 Percent Label Claim and 105.86 Percent Label Claim and 106.37 Percent Label Claim and 104.61 Percent Label Claim
